Values joined by “and” are separate entries in the source; they are usually repeats but may differ in a detail not shown here. Equal entries are not always repeated. Toxic doses and inconclusive results are not listed.
System: L1210 leukemia ip in BDF1 mice, survival T/C
Assay: NCI In Vivo Anticancer Drug Screen. Data for tumor model L1210 Leukemia (intraperitoneal) in B6D2F1 (BDF1) mice
Details: endpoint: mean survival time, higher = longer survival
Procedure, shortened: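 Antitumor effect is assessed in tumor-bearing animals. Survival in the compound arm is compared with a vehicle-dosed control arm and expressed as their quotient.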

[1] = dose: 100.0 mg/kg/injection, schedule: Q04DX003 (ip), vehicle: saline with Tween-80
[2] = dose: 200.0 mg/kg/injection, schedule: Q04DX003 (ip), vehicle: saline with Tween-80
[3] = dose: 400.0 mg/kg/injection, schedule: Q04DX003 (ip), vehicle: saline with Tween-80
[4] = dose: 200.0 mg/kg/injection, schedule: Q01DX001 (ip), vehicle: carboxymethylcellulose (CMC)
[5] = dose: 400.0 mg/kg/injection, schedule: Q01DX001 (ip), vehicle: carboxymethylcellulose (CMC)
[6] = dose: 100.0 mg/kg/injection, schedule: Q04DX002 (ip), vehicle: saline with Tween-80
[7] = dose: 200.0 mg/kg/injection, schedule: Q04DX002 (ip), vehicle: saline with Tween-80
[8] = dose: 50.0 mg/kg/injection, schedule: Q01DX009 (ip), vehicle: Klucel (hydroxypropylcellulose) (HPC)
[9] = dose: 100.0 mg/kg/injection, schedule: Q01DX009 (ip), vehicle: Klucel (hydroxypropylcellulose) (HPC)
[10] = dose: 100.0 mg/kg/injection, schedule: Q04DX003 (ip), vehicle: Klucel (hydroxypropylcellulose) (HPC)
[11] = dose: 200.0 mg/kg/injection, schedule: Q01DX009 (ip), vehicle: Klucel (hydroxypropylcellulose) (HPC)
[12] = dose: 200.0 mg/kg/injection, schedule: Q04DX003 (ip), vehicle: Klucel (hydroxypropylcellulose) (HPC)
[13] = dose: 25.0 mg/kg/injection, schedule: Q01DX009 (ip), vehicle: saline
[14] = dose: 25.0 mg/kg/injection, schedule: Q04DX003 (ip), vehicle: saline
[15] = dose: 50.0 mg/kg/injection, schedule: Q01DX009 (ip), vehicle: saline
[16] = dose: 100.0 mg/kg/injection, schedule: Q01DX001 (ip), vehicle: carboxymethylcellulose (CMC)

COC1OC2COc3ccccc3OC2C(NC(N)=S)C1S (centres undefined)
T/C [1]: 102 % of control | T/C [2]: 95 % of control | T/C [3]: 102 % of control

Oc1ccc(C2SC(c3ccc(O)cc3)SC(c3ccc(O)cc3)S2)cc1 (centres undefined)
T/C [4]: 88 % of control | T/C [5]: 88 % of control

CN(C)c1ccc(N=Nc2nccs2)cc1
T/C [1]: 91 % of control | T/C [3]: 88 % of control

CC(C)CCCC(C)CCCl (centres undefined)
T/C [6]: 93 % of control | T/C [7]: 86 % of control | T/C (dose: 400.0 mg/kg/injection, schedule: Q04DX002 (ip), vehicle: saline with Tween-80): 107 % of control

O=c1oc2ccccc2c(N2CCCCC2)c1Cl
T/C (dose: 100.0 mg/kg/injection, schedule: Q04DX002 (ip), vehicle: gum acacia): 111 % of control | T/C (dose: 200.0 mg/kg/injection, schedule: Q04DX002 (ip), vehicle: gum acacia): 104 % of control | T/C (dose: 400.0 mg/kg/injection, schedule: Q04DX002 (ip), vehicle: gum acacia): 93 % of control

O=C(O)c1ccc(I)cc1.[Ni]
T/C (dose: 25.0 mg/kg/injection, schedule: Q04DX002 (ip), vehicle: Klucel (hydroxypropylcellulose) (HPC)): 100 % of control | T/C (dose: 50.0 mg/kg/injection, schedule: Q04DX002 (ip), vehicle: Klucel (hydroxypropylcellulose) (HPC)): 100 % of control

O=CN(O)CC(=O)O
T/C (dose: 62.5 mg/kg/injection, schedule: Q01DX010 (ip), vehicle: saline): 95 % of control and 98 % of control | T/C (dose: 62.5 mg/kg/injection, schedule: Q01DX Z (ip), vehicle: saline): 93 % of control | T/C (dose: 125.0 mg/kg/injection, schedule: Q01DX010 (ip), vehicle: saline): 95 % of control | T/C (dose: 125.0 mg/kg/injection, schedule: Q01DX Z (ip), vehicle: saline): 98 % of control | T/C (dose: 250.0 mg/kg/injection, schedule: Q01DX010 (ip), vehicle: saline): 98 % of control and 106 % of control | T/C (dose: 250.0 mg/kg/injection, schedule: Q01DX Z (ip), vehicle: saline): 92 % of control | T/C (dose: 500.0 mg/kg/injection, schedule: Q01DX010 (ip), vehicle: saline): 96 % of control and 101 % of control | T/C (dose: 500.0 mg/kg/injection, schedule: Q01DX Z (ip), vehicle: saline): 88 % of control | T/C (dose: 575.0 mg/kg/injection, schedule: Q02DX010 (ip), vehicle: other): 101 % of control | T/C (dose: 860.0 mg/kg/injection, schedule: Q02DX010 (ip), vehicle: other): 107 % of control | T/C (dose: 1300.0 mg/kg/injection, schedule: Q02DX010 (ip), vehicle: other): 105 % of control | T/C (dose: 2000.0 mg/kg/injection, schedule: Q02DX010 (ip), vehicle: other): 106 % of control | T/C (dose: 3000.0 mg/kg/injection, schedule: Q02DX010 (ip), vehicle: other): 117 % of control

CN1CN(c2ccccc2)CSC1=S
T/C [8]: 102 % of control | T/C [9]: 107 % of control | T/C [10]: 94 % of control | T/C [11]: 95 % of control | T/C [12]: 89 % of control

CCOC(=O)Nc1cc2c(c(N)n1)N=C(CN(C)c1ccc(Cl)cc1)CN2
T/C (dose: 100.0 mg/kg/injection, schedule: Q01DX001 (ip), vehicle: Klucel (hydroxypropylcellulose) (HPC)): 150 % of control and 165 % of control | T/C (dose: 150.0 mg/kg/injection, schedule: Q01DX001 (ip), vehicle: Klucel (hydroxypropylcellulose) (HPC)): 93 % of control

CCc1c(Nc2ccc(Cl)c(Cl)c2)[nH]c(N)nc1=S
T/C (dose: 100.0 mg/kg/injection, schedule: Q01DX Z (ip), vehicle: methylcellulose (MC)): 90 % of control | T/C (dose: 200.0 mg/kg/injection, schedule: Q01DX Z (ip), vehicle: methylcellulose (MC)): 105 % of control

OC(c1cc2c3c(c1)CCCN3CCC2)(C(F)(F)F)C(F)(F)F
T/C [1]: 92 % of control | T/C [2]: 96 % of control

NC(Cc1ccc(O)cc1)C(=O)N/N=C/c1ccc(N(CCCl)CCCl)cc1 (centres undefined)
T/C (dose: 25.0 mg/kg/injection, schedule: Q01DX009 (ip), vehicle: Klucel (hydroxypropylcellulose) (HPC)): 101 % of control | T/C [8]: 113 % of control | T/C [9]: 106 % of control | T/C [10]: 107 % of control | T/C [12]: 102 % of control

COc1ccc(C2(C)OC(=O)c3ccccc32)c2ccccc12 (centres undefined)
T/C (dose: 100.0 mg/kg/injection, schedule: Q01DX001 (ip), vehicle: saline with Tween-80): 94 % of control | T/C (dose: 200.0 mg/kg/injection, schedule: Q01DX001 (ip), vehicle: saline with Tween-80): 100 % of control | T/C (dose: 400.0 mg/kg/injection, schedule: Q01DX001 (ip), vehicle: saline with Tween-80): 87 % of control

C=CC[n+]1cccc2ccccc21
T/C (dose: 12.5 mg/kg/injection, schedule: Q01DX009 (ip), vehicle: saline): 97 % of control | T/C (dose: 12.5 mg/kg/injection, schedule: Q04DX003 (ip), vehicle: saline): 98 % of control | T/C [13]: 101 % of control | T/C [14]: 104 % of control | T/C [15]: 99 % of control | T/C (dose: 50.0 mg/kg/injection, schedule: Q04DX003 (ip), vehicle: saline): 98 % of control

O=C1[O][Hg][c]2cccc3cccc1c23
T/C (dose: 5.0 mg/kg/injection, schedule: Q04DX003 (ip), vehicle: saline with Tween-80): 101 % of control | T/C (dose: 10.0 mg/kg/injection, schedule: Q04DX003 (ip), vehicle: saline with Tween-80): 95 % of control

CC1(C)N=C(N)N=C(N)N1c1ccc(OCCNC(=O)Nc2ccc(S(=O)(=O)F)cc2)c(Cl)c1
T/C [13]: 102 % of control | T/C [15]: 105 % of control | T/C (dose: 100.0 mg/kg/injection, schedule: Q01DX009 (ip), vehicle: saline): 113 % of control

CCOC(=O)Cn1c(=O)cc(C=O)c2ccccc21
T/C [16]: 91 % of control | T/C [4]: 91 % of control | T/C [5]: 89 % of control

N#CCCCCCl
T/C (dose: 6.0 mg/kg/injection, schedule: Q01DX009 (ip), vehicle: saline): 103 % of control | T/C (dose: 12.0 mg/kg/injection, schedule: Q01DX009 (ip), vehicle: saline): 105 % of control | T/C (dose: 12.0 mg/kg/injection, schedule: Q04DX003 (ip), vehicle: saline): 97 % of control | T/C [13]: 103 % of control | T/C [14]: 96 % of control

O=C(O)Cc1cc2c(cc1I)OCO2
T/C (dose: 100.0 mg/kg/injection, schedule: Q01DX009 (ip), vehicle: saline with Tween-80): 98 % of control | T/C (dose: 200.0 mg/kg/injection, schedule: Q01DX009 (ip), vehicle: saline with Tween-80): 104 % of control | T/C (dose: 400.0 mg/kg/injection, schedule: Q01DX009 (ip), vehicle: saline with Tween-80): 109 % of control

CCOC(=O)CCCS
T/C (dose: 75.0 mg/kg/injection, schedule: Q01DX001 (ip), vehicle: carboxymethylcellulose (CMC)): 93 % of control | T/C (dose: 150.0 mg/kg/injection, schedule: Q01DX001 (ip), vehicle: carboxymethylcellulose (CMC)): 93 % of control

O=C1CCCCCCCCCCCCCCO1
T/C (dose: 100.0 mg/kg/injection, schedule: Q04DX002 (ip), vehicle: Klucel (hydroxypropylcellulose) (HPC)): 96 % of control | T/C (dose: 200.0 mg/kg/injection, schedule: Q04DX002 (ip), vehicle: Klucel (hydroxypropylcellulose) (HPC)): 90 % of control | T/C (dose: 400.0 mg/kg/injection, schedule: Q04DX002 (ip), vehicle: Klucel (hydroxypropylcellulose) (HPC)): 93 % of control

OCC(O)C(O)C(O)/C=N\Nc1ccc(Br)cc1 (centres undefined)
T/C (dose: 50.0 mg/kg/injection, schedule: Q04DX002 (ip), vehicle: saline with Tween-80): 93 % of control | T/C [6]: 95 % of control | T/C [7]: 87 % of control

C=C(C)C(C(=O)OC)n1scc(NCc2ccccc2)c1=O (centres undefined)
T/C (dose: 100.0 mg/kg/injection, schedule: Q04DX003 (ip), vehicle: saline): 91 % of control | T/C (dose: 200.0 mg/kg/injection, schedule: Q04DX003 (ip), vehicle: saline): 91 % of control | T/C (dose: 400.0 mg/kg/injection, schedule: Q04DX003 (ip), vehicle: saline): 89 % of control

Nc1cc2c(cc1Br)-c1ccc([N+](=O)[O-])cc1/C2=N\O
T/C [16]: 113 % of control | T/C [4]: 103 % of control | T/C [5]: 97 % of control

CCCCCCCCCCCCCCCCCCNC(=O)N(CC)c1ccccc1
T/C [9]: 101 % of control | T/C [10]: 93 % of control | T/C [11]: 98 % of control | T/C [12]: 101 % of control | T/C (dose: 400.0 mg/kg/injection, schedule: Q01DX009 (ip), vehicle: Klucel (hydroxypropylcellulose) (HPC)): 106 % of control | T/C (dose: 400.0 mg/kg/injection, schedule: Q04DX003 (ip), vehicle: Klucel (hydroxypropylcellulose) (HPC)): 92 % of control

— PubChem BioAssay AID248 (DTP/NCI, 2004)
